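How tested: cells in 96-well plates exposed to compound for 48 hours at five concentrations. Abbreviation: GI50, concentration required for 50% inhibition of growth. TGI: concentration producing complete growth inhibition.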
Key:
Assay in all cases: inhibition of tumour cell growth, NCI panel, 48 h
[1] = test system: HL-60(TB) leukemia
[2] = test system: CCRF-CEM leukemia
[3] = test system: IGROV1 ovarian
[4] = test system: COLO 205 colon
[5] = test system: UACC-62 melanoma
[6] = test system: HOP-92 NSCLC
[7] = test system: ACHN renal
[8] = test system: NCI-H226 lung
[9] = test system: SK-MEL-28 melanoma
[10] = test system: SNB-19 CNS
[11] = test system: SF-268 CNS
[12] = test system: OVCAR-8 ovarian
[13] = test system: RPMI-8226 leukemia
[14] = test system: MCF7 breast
[15] = test system: CAKI-1 renal
[16] = test system: 786-0 renal
[17] = test system: EKVX NSCLC
[18] = test system: SF-295 CNS
[19] = test system: A549 NSCLC
[20] = test system: SK-MEL-2 melanoma
[21] = test system: MOLT-4 leukemia
[22] = test system: K-562 leukemia
[23] = test system: OVCAR-3 ovarian
[24] = test system: T-47D breast
[25] = test system: HS 578T breast
[26] = test system: NCI-H23 lung
[27] = test system: U251 CNS
[28] = test system: OVCAR-4 ovarian
[29] = test system: UO-31 renal
[30] = test system: HCC-2998 colon
[31] = test system: NCI-H522 lung
[32] = test system: PC-3 prostate
[33] = test system: DU-145 prostate
[34] = test system: SR leukemia
[35] = test system: KM12 colon
[36] = test system: MALME-3M melanoma
[37] = test system: SN12C renal
[38] = test system: MDA-MB-231 breast
[39] = test system: HT29 colon
[40] = test system: SF-539 CNS
[41] = test system: SK-MEL-5 melanoma
[42] = test system: HOP-62 NSCLC
[43] = test system: NCI/ADR-RES ovarian
[44] = test system: A498 renal
[45] = test system: UACC-257 melanoma
[46] = test system: M14 melanoma
[47] = test system: HCT-15 colon
[48] = test system: BT-549 breast
[49] = test system: MDA-MB-435
[50] = test system: SK-OV-3 ovarian
[51] = test system: LOX IMVI melanoma
[52] = test system: NCI-H460 lung
[53] = test system: OVCAR-5 ovarian
[54] = test system: SW-620 colon
[55] = test system: TK-10 renal

In the case of Cc1ccc(S(=O)(=O)NCCCNc2nc(Nc3ccc(N4CCN(C)CC4)cc3)nc3ccsc23)cc1, the GI50 [1] is reported as 2.01 µM, the TGI [1] is reported as 5.18 µM and the GI50 [2] is reported as 2.73 µM. It also gave a TGI [2] of 22.9 µM, a GI50 [3] of 7.35 µM and a TGI [3] of 21.8 µM. The GI50 [4] was 13.1 µM, the TGI [4] was 29.8 µM and the GI50 [5] was 11.5 µM. For the same compound, the TGI [5] was 23.6 µM, the GI50 [6] was 1.94 µM and the TGI [6] was 11.6 µM. The GI50 [7] was 12 µM, the TGI [7] was 25.2 µM and the GI50 [8] was 8.46 µM. The TGI [8] was 21.8 µM, the GI50 [9] was 6.5 µM and the TGI [9] was 19.4 µM. For the same compound, the GI50 [10] was 15.9 µM, the TGI [10] was 32.4 µM and the GI50 [11] was 9.87 µM. It also gave a TGI [11] of 46 µM, a GI50 [12] of 10.9 µM and a TGI [12] of 29.7 µM. The GI50 [13] was 2.5 µM, the TGI [13] was 8.04 µM and the GI50 [14] was 3.52 µM. For the same compound, the TGI [14] was 13.8 µM, the GI50 [15] was 12.8 µM and the TGI [15] was 25.5 µM. The GI50 [16] was 1.77 µM, the TGI [16] was 3.42 µM and the GI50 [17] was 11.6 µM. It also gave a TGI [17] of 28.7 µM, a GI50 [18] of 9.03 µM and a TGI [18] of 21.6 µM. For the same compound, the GI50 [19] was 14.9 µM, the TGI [19] was 31.5 µM and the GI50 [20] was 15.1 µM. For the same compound, the TGI [20] was 29 µM, the GI50 [21] was 3.43 µM and the TGI [21] was 28.7 µM. For the same compound, the GI50 [22] was 2.56 µM, the TGI [22] was > 100 µM and the GI50 [23] was 10.2 µM. It also gave a TGI [23] of 42.1 µM, a GI50 [24] of 13.3 µM and a TGI [24] of 37.2 µM. It also gave a GI50 [25] of 5.09 µM, a TGI [25] of 26.7 µM and a GI50 [26] of 12.2 µM. It also gave a TGI [26] of 26.5 µM, a GI50 [27] of 3.83 µM and a TGI [27] of 18.7 µM. For the same compound, the GI50 [28] was 10.3 µM, the TGI [28] was 44.2 µM and the GI50 [29] was 7.94 µM. The TGI [29] was 23.8 µM, the GI50 [30] was 5.34 µM and the TGI [30] was 17.8 µM. For the same compound, the GI50 [31] was 12.5 µM, the TGI [31] was 26.2 µM and the GI50 [32] was 5.55 µM. It also gave a TGI [32] of 21.6 µM, a GI50 [33] of 16.4 µM and a TGI [33] of 40.6 µM. For the same compound, the GI50 [34] was 2.84 µM, the TGI [34] was > 100 µM and the GI50 [35] was 14.3 µM. The TGI [35] was 47.9 µM, the GI50 [36] was 1.79 µM and the TGI [36] was 3.42 µM. It also gave a GI50 [37] of 13.6 µM, a TGI [37] of 28 µM and a GI50 [38] of 3.92 µM. For the same compound, the TGI [38] was 18.7 µM, the GI50 [39] was 4.4 µM and the TGI [39] was 18.4 µM. It also gave a GI50 [40] of 2.16 µM, a TGI [40] of 5.78 µM and a GI50 [41] of 12.9 µM. For the same compound, the TGI [41] was 25.6 µM, the GI50 [42] was 14.8 µM and the TGI [42] was 30.5 µM. For the same compound, the GI50 [43] was 15.5 µM, the TGI [43] was 41.9 µM and the GI50 [44] was 19.4 µM. It also gave a TGI [44] of 34.5 µM, a GI50 [45] of 2.19 µM and a TGI [45] of 5.83 µM. The GI50 [46] was 1.6 µM, the TGI [46] was 3.13 µM and the GI50 [47] was 2.07 µM. For the same compound, the TGI [47] was 5.54 µM, the GI50 [48] was 3.56 µM and the TGI [48] was 16.4 µM. It also gave a GI50 [49] of 9.14 µM, a TGI [49] of 21.3 µM and a GI50 [50] of 27.1 µM. For the same compound, the TGI [50] was 77.8 µM, the GI50 [51] was 1.51 µM and the TGI [51] was 3.06 µM. The GI50 [52] was 13 µM, the TGI [52] was 27.8 µM and the GI50 [53] was 11.9 µM. For the same compound, the TGI [53] was 25.9 µM, the GI50 [54] was 12.5 µM and the TGI [54] was 28 µM. The GI50 [55] was 17.7 µM and the TGI [55] was 40.3 µM.
